Experimental data published in patent publication US20230069804A1, “METHODS AND COMPOSITIONS FOR MODULATING SPLICING” (SkyHawk Therapeutics, Inc., priority 2019, published 2023).
Read-outs that look alike come from different tables or passages of the source.

Experiments:
SMN2 = assay: Quantitative splicing assay (SMN) in SMA patient fibroblasts GM03813; assay type: cell-based; details: Homo sapiens, Fibroblast, SMA patient fibroblasts GM03813, 24 h; for IC50: read-out: SMN2 Potency - Splicing: Splicing D7 IC50 (average); for EC50: read-out: SMN2 Potency - Splicing: Splicing FL EC50 (average)
Description: Spinal muscular atrophy (SMA) patient fibroblasts (GM03813, Coriell) are plated in 96-well plates at 50,000 cells/well. Immediately after plating, cells are dosed with compounds for 24 h at concentrations ranging from 2.5 μM to 0.6 nM (0.1% DMSO). Treated cells are lysed and cDNA synthesized using the Fast Advanced Cells-to-Ct kit (Thermofisher A35378) according to the manufacturer's instructions. 2 μL of each cDNA are used in qPCR reactions. The qPCR reactions are prepared in 384-well plates in 10 μL volume, using TaqMan™ Fast Advanced Master Mix (ThermoFisher; 4444965) with primers and probes shown in the table below. Reactions are run in a Quant Studio 6 qPCR instrument with default settings.
It is to be understood that the absolute stereochemistry for compounds of Table 3 is not determined.

SMN protein = SMN protein assay (MSD) in SMA patient fibroblasts GM03813; assay type: cell-based; details: SMA patient fibroblasts GM03813, 48 hours
Description: Compounds were tested on spinal muscular atrophy (SMA) patient fibroblasts (GM03813, Coriell) at doses ranging from 2.5 μM to 0.6 nM. 7000 cells/well were seeded in 96-well plates. Compounds were incubated for 48 hours and the cells were lysed with 100 μL of lysis buffer. 20 μL of lysate was used for SMN protein measurement by Mesoscale Discovery (MSD) assay developed by PharmOptima (Michigan). A standard curve prepared with SMN protein ranging from 1 μg/ml to 19.5 pg/ml was used in each MSD plate to calculate the absolute SMN protein amount in each sample.

[1] = system: MDR1-MDCK cell monolayers; assay: MDCK-MDR1 permeability assay (BBB penetration potential); assay type: in vitro ADME; details: 5 μM, 120 minutes; for MDCK-MDR1: % Recov A-B / MDCK-MDR1: % Recov B-A: pH 7.4; for MDCK MDRP1 Efflux Ratio: Papp (B-to-A)/Papp (A-to-B), separated enantiomers, told apart by chiral retention time
Description: (§1) Each determination is performed in duplicate. […] Analytical conditions are outlined below.
(§2) Papp=(dCr/dt)×Vr/(A×CA) (1)

MDR1 = assay: as above; assay type: in vitro ADME; details: dog; for Papp A→B at 120 min, 5 μM / Papp B→A at 120 min, 5 μM: MDCK-MDR1, pH 7.4
Description: as §1, §2

[2] = Fibroblast, 48 h, read-out: SMN2 Potency - Protein: Protein FL EC50 (average)
[3] = MDCK-MDR1, pH 7.4, Papp (B-to-A)/Papp (A-to-B), read-out: MDCK-MDR1: Efflux
[4] = MDCK-MDR1, pH 7.4, Papp (B-to-A)/Papp (A-to-B), 5 μM, 120 minutes, separated enantiomers, told apart by chiral retention time, read-out: MDCK MDRP1 Efflux Ratio

Compound	IC50 (SMN2)	EC50 (SMN2)	EC50 (SMN protein; [2])	MDCK-MDR1: % Recov A-B [1]	MDCK-MDR1: % Recov B-A [1]	efflux ratio at 120 min, 5 μM (MDR1; [3])	Papp A→B at 120 min, 5 μM (MDR1; 5 μM, 120 minutes)	Papp B→A at 120 min, 5 μM (MDR1; 5 μM, 120 minutes)	MDCK MDRP1 Efflux Ratio [1]	efflux ratio at 120 min, 5 μM (MDR1; [4])	EC50 (SMN protein; Fibroblast, 48 h, separated enantiomers, told apart by chiral retention time, read-out: SMN EC50)	EC50 (SMN protein; separated enantiomers, told apart by chiral retention time, read-out: SMN EC50)
CN(c1nnc(-c2ccc(-c3cnn(C)c3)cc2O)s1)[C@@H]1C[C@H]2CC[C@H](N2)[C@@H]1F [Compound E-3B, 2-(5-(((1S,2S,3R,5R)-2-fluoro-8-azabicyclo[3.2.1]octan-3-yl)(methyl)amino)-1,3,4-thiadiazol-2-yl)-5-(1-methyl-1H-pyrazol-4-yl)phenol]	0.01 to 15 nM	16 to 50 nM	0.01 to 15 nM	80%	89%	5	11.2 ×10⁻⁶ cm/s	51.1 ×10⁻⁶ cm/s	–	–	–	–
CN(c1nnc(-c2ccc(-c3cn[nH]c3)cc2O)s1)[C@@H]1C[C@H]2CC[C@H](N2)[C@@H]1F (single isomer, unassigned) [Compound E-7B]	0.01 to 15 nM	0.01 to 15 nM	0.01 to 15 nM	79%	91%	12	4.76 ×10⁻⁶ cm/s	56 ×10⁻⁶ cm/s	–	–	–	–
CN(c1nnc(-c2ccc(-c3cn[nH]c3)cc2O)s1)[C@H]1C[C@@H]2CC[C@H]([C@H]1F)N2C (single isomer, unassigned) [Compound E-23A]	501 to 10000 nM	501 to 10000 nM	101 to 500 nM	78%	90%	9	4.65 ×10⁻⁶ cm/s	41.2 ×10⁻⁶ cm/s	–	–	–	–
CN(c1nnc(-c2ccc(-c3cnn(CF)c3)cc2O)s1)[C@@H]1C[C@H]2CC[C@H](N2)[C@@H]1F (single isomer, unassigned) [Compound E-10B]	16 to 50 nM	16 to 50 nM	0.01 to 15 nM	72%	73%	6	7.85 ×10⁻⁶ cm/s	48.9 ×10⁻⁶ cm/s	–	–	–	–
COc1cc(-c2ccc(-c3nnc(N(C)[C@@H]4C[C@H]5CC[C@H](N5)[C@@H]4F)s3)c(O)c2)ncn1 (single isomer, unassigned) [Compound E-5A]	51 to 100 nM	51 to 100 nM	16 to 50 nM	41%	61%	2	7.8 ×10⁻⁶ cm/s	19.1 ×10⁻⁶ cm/s	–	–	–	–
CN(c1nnc(-c2ccc(-c3cnn(C)c3)cc2O)s1)[C@@H]1C[C@H]2CCC[C@H](N2)[C@@H]1F [Compound E-1A, 2-(5-(((1S,2S,3R,5R)-2-fluoro-9-azabicyclo[3.3.1]nonan-3-yl)(methyl)amino)-1,3,4-thiadiazol-2-yl)-5-(1-methyl-1H-pyrazol-4-yl)phenol]	51 to 100 nM	101 to 500 nM	16 to 50 nM	57%	71%	6	5.28 ×10⁻⁶ cm/s	33.1 ×10⁻⁶ cm/s	–	–	–	–
COc1cc(-c2ccc(-c3nnc(N(C4CC4)[C@H]4C[C@@H]5CC[C@@H](N5)[C@H]4F)s3)c(O)c2)cc(F)n1 [Compound E-2B, 2-(5-(cyclopropyl((1R,2R,3S,5S)-2-fluoro-8-azabicyclo[3.2.1]octan-3-yl)amino)-1,3,4-thiadiazol-2-yl)-5-(2-fluoro-6-methoxypyridin-4-yl)phenol]	16 to 50 nM	51 to 100 nM	0.01 to 15 nM	16%	44%	5	1.87 ×10⁻⁶ cm/s	9.89 ×10⁻⁶ cm/s	–	–	–	–
CN(c1nnc(-c2ccc(-c3cnn(C)c3)cc2O)s1)[C@@H]1C[C@H]2CCC[C@H](N2)[C@@H]1F (racemic) [1A/1B, 2-(5-(((1S,2S,3R,5R)-2-fluoro-9-azabicyclo[3.3.1]nonan-3-yl)(methyl)amino)-1,3,4-thiadiazol-2-yl)-5-(1-methyl-1H-pyrazol-4-yl)phenol and 2-(5-(((1R,2R,3S,5S)-2-fluoro-9-azabicyclo[3.3.1]nonan-3-yl)(methyl)amino)-1,3,4-thiadiazol-2-yl)-5-(1-methyl-1H-pyrazol-4-yl)phenol]	–	–	–	–	–	–	–	–	6	5.5	–	–
CN(c1nnc(-c2ccc(-c3cn[nH]c3)cc2O)s1)[C@H]1C[C@@H]2CC[C@H]([C@H]1F)N2C (racemic) [23A/23B, 2-(5-{[(1S,2S,3R,5R)-2-fluoro-8-methyl-8-azabicyclo[3.2.1]octan-3-yl](methyl)amino}-1,3,4-thiadiazol-2-yl)-5-(1H-pyrazol-4-yl)phenol and 2-(5-{[(1R,2R,3S,5S)-2-fluoro-8-methyl-8-azabicyclo[3.2.1]octan-3-yl](methyl)amino}-1,3,4-thiadiazol-2-yl)-5-(1H-pyrazol-4-yl)phenol]	–	–	–	–	–	–	–	–	9	7	–	–
CN(c1nnc(-c2ccc(-c3cc(=O)n(C)cn3)cc2O)s1)[C@@H]1C[C@H]2CC[C@H](N2)[C@@H]1F (racemic) [8A/8B, 6-[4-(5-{[(1S,2S,3R)-2-fluoro-8-azabicyclo[3.2.1]octan-3-yl](methyl)amino}-1,3,4-thiadiazol-2-yl)-3-hydroxyphenyl]-3-methyl-3,4-dihydropyrimidin-4-one and 6-[4-(5-{[(2R,3S,5S)-2-fluoro-8-azabicyclo[3.2.1]octan-3-yl](methyl)amino}-1,3,4-thiadiazol-2-yl)-3-hydroxyphenyl]-3-methyl-3,4-dihydropyrimidin-4-one]	–	–	–	–	–	–	–	–	31	21	–	–
CN(c1nnc(-c2ccc(-c3ccn(C)c(=O)c3)cc2O)s1)[C@H]1C[C@@H]2CC[C@@H](N2)[C@H]1F (single isomer, unassigned) [Compound E-4B]	–	–	–	115%	125%	40	1.81 ×10⁻⁶ cm/s	71.4 ×10⁻⁶ cm/s	–	–	–	–
CN(c1nnc(-c2ccc(-c3ccn(CF)c(=O)c3)cc2O)s1)[C@@H]1C[C@H]2CC[C@H](N2)[C@@H]1F (single isomer, unassigned) [Compound E-15A]	–	–	–	82%	96%	40	1.39 ×10⁻⁶ cm/s	55.6 ×10⁻⁶ cm/s	–	–	–	–
CN(c1nnc(-c2ccc(-c3cc(=O)n(C)cn3)cc2O)s1)[C@@H]1C[C@H]2CC[C@H](N2)[C@@H]1F (single isomer, unassigned) [Compound E-8A]	–	–	–	116%	114%	21	1.31 ×10⁻⁶ cm/s	27.8 ×10⁻⁶ cm/s	–	–	–	–
CN(c1nnc(-c2ccc(-c3cnn(CF)c3)cc2O)s1)[C@H]1C[C@@H]2CC[C@@H](N2)[C@H]1F (single isomer, unassigned) [Compound E-10A]	–	–	–	72%	80%	6	8.6 ×10⁻⁶ cm/s	50.8 ×10⁻⁶ cm/s	–	–	–	–
CN(c1nnc(-c2ccc(-c3ccn(C)c(=O)c3)cc2O)s1)[C@@H]1C[C@H]2CC[C@H](N2)[C@@H]1F (racemic) [4A/4B, 4-[4-(5-{[(1S,2S,3R)-2-fluoro-8-azabicyclo[3.2.1]octan-3-yl](methyl)amino}-1,3,4-thiadiazol-2-yl)-3-hydroxyphenyl]-1-methyl-1,2-dihydropyridin-2-one and 4-[4-(5-{[(2R,3S,5S)-2-fluoro-8-azabicyclo[3.2.1]octan-3-yl](methyl)amino}-1,3,4-thiadiazol-2-yl)-3-hydroxyphenyl]-1-methyl-1,2-dihydropyridin-2-one]	–	–	–	–	–	–	–	–	40	54	51 to 100 nM	101 to 500 nM
CN(c1nnc(-c2cc(F)c(-c3cn[nH]c3)cc2O)s1)[C@@H]1C[C@H]2CC[C@H](N2)[C@@H]1F (single isomer, unassigned) [Compound E-6A]	–	–	–	59%	80%	15	2.33 ×10⁻⁶ cm/s	35.2 ×10⁻⁶ cm/s	–	–	–	–
